How the values were obtained:
GABAA α4β3δ = biological target: T1, GABAA α4β3δ (Homo sapiens, UniProt P28472+P48169); test: Automated patch clamp electrophysiology (SyncroPatch), PAM mode, GABAA α4β3δ cell line; assay type: cell-based; conditions: PAM mode, GABA EC20 10 μM; for EC50: HEK293 cells expressing human GABAA α4β3δ, read-out: GABAA α4β3δ PAM EC50; for Emax: maximum fold increase in current relative to Allopregnanolone, read-out: GABAA α4β3δ PAM % Emax (to Allo)
T1 construct: expressed in transfected cells; host or cells: HEK293 expressing the Tetracycline repressor protein
T1 sequence (P48169 36-554): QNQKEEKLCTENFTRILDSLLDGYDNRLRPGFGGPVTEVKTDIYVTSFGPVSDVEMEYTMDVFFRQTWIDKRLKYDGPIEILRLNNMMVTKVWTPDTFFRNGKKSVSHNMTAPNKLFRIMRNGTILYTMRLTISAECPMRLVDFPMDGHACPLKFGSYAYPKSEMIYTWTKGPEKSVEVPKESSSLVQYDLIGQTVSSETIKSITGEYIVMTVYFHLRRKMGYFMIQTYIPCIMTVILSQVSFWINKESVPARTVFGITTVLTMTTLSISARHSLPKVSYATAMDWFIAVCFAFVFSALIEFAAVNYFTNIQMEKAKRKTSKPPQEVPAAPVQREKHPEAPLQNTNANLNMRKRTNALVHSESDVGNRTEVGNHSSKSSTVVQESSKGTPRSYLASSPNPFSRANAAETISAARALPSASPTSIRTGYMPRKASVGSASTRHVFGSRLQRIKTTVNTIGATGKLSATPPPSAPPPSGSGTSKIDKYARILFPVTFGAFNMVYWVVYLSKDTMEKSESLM
T1 sequence (P28472 26-473): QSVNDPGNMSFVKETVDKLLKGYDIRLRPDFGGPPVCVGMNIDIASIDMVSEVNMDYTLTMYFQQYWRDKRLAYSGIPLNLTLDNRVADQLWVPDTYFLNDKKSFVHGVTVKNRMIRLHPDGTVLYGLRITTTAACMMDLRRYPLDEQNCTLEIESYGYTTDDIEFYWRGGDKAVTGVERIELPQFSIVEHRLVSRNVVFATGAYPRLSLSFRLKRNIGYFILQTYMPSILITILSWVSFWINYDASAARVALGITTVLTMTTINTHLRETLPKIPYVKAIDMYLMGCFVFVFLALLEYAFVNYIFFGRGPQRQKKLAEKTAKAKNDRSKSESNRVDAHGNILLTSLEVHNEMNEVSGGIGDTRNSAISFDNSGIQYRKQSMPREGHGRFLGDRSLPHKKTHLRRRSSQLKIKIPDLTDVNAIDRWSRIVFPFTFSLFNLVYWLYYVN
T1 sequence (O14764 17-452 partner limits assumed): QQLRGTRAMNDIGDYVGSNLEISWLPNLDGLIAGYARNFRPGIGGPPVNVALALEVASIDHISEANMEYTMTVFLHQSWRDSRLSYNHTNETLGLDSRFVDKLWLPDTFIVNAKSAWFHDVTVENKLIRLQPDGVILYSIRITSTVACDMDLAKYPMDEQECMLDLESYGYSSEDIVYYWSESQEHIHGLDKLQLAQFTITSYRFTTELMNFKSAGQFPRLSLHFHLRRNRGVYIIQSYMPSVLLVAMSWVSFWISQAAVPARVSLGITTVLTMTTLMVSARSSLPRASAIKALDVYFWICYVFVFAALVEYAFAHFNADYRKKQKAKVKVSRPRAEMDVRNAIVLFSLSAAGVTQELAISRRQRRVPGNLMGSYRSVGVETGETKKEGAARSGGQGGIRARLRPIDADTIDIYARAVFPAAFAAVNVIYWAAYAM
Source text: (§1) Cellular electrophysiology was used to measure the pharmacology properties of the GABA receptor modulators. The GABAA channels are expressed in stable cell lines described herein. The parental cell line used to express the human GABAA channels is the human embryonic kidney (HEK293) cell line expressing the Tetracycline repressor protein to support inducible expression of the target proteins.
(§2) For the GABAA α4β3δ cell line, the α4 and β3 subunits are under control of tetracycline inducible expression system, while the δ subunit is constitutively expressed. For the GABAA α1β2γ2 cell line, the α1 and β2 subunits are under control of tetracycline inducible expression system, whist the γ2 subunit is constitutively expressed.
(§3) Assessment of the compounds against GABAA α1β2γ2 and GABAA α4β3δ was performed using the SyncroPatch automated platform in positive allosteric modulator (PAM) mode. Six concentrations of 20 nM, 62 nM, 185 nM, 555 nM, 1667 nM and 5000 nM were tested across the plate, with a single concentration of compound per well. A minimum of 3 cells were obtained per each concentration of a compound.
(§4) Automated patch clamp-recordings were performed using the SyncroPatch 384PE. The voltage protocol generation and data collection were performed with PatchController384 V1.6.6 and Data Controller V1.6.0. A steady state voltage pulse at −80 mV was applied during the assay.
(§5) The stacked addition protocol was used, in which γ-aminobutyric acid (GABA) was rapidly applied and then washed off from the cell. To test for positive allosteric modulator activity (PAM), first the agonist GABA EC20 (EC20: 10 μM for GABAA α4β3δ channel and 14 μM GABA for the GABAA α1β2γ2 channel) was applied twice (with wash steps in-between) as a control and to show activation reproducibility, followed by a 1-2 minutes pre-incubation of the tested compound and then re-application of GABA EC20 in the presence of a testing compound. Finally, following a further wash step, maximum GABA (10 mM) was applied.
(§6) An Allopregnanolone concentration response was tested as the control PAM on the compound plates. The fold increase was generated using the following equation, (Icomp/Icontrol)−1, where Icomp is the current amplitude in the presence of the compound and Icontrol is the current amplitude in the presence of GABA EC20 alone. This builds an EC50 concentration-response curve, where 0 represents no PAM activity and >0 represents PAM activity.
(§7) A maximum % Emax for each compound is generated using the following equation, (IMaxComp/IAveMaxAllo)*100, where IMaxcomp is the individual maximum fold increase in current for each compound and IAveMaxAllo is the average maximum fold increase generated in the presence of Allopregnanolone. The resultant % Emax values are then averaged. The compound and Allopregnanolone values were obtained from separate cells which were tested in the same compound run. Two GABAA subtypes were tested against each of the compounds as well as the positive control, Allopregnanolone.

GABAA α1β2γ2 = biological target: T2, GABAA α1β2γ2 (Homo sapiens, UniProt P14867+P47870); test: Automated patch clamp electrophysiology (SyncroPatch), PAM mode, GABAA α1β2γ2 cell line; assay type: cell-based; conditions: PAM mode; for EC50: HEK293 cells expressing human GABAA α1β2γ2, GABA EC20 14 μM, read-out: GABAA α1β2γ2 PAM EC50; for Emax: maximum fold increase in current relative to Allopregnanolone, GABA EC20 14 μM, read-out: GABAA α1β2γ2 PAM % Emax (to Allo)
T2 construct: expressed in transfected cells; host or cells: HEK293 expressing the Tetracycline repressor protein
T2 sequence (P14867 28-456): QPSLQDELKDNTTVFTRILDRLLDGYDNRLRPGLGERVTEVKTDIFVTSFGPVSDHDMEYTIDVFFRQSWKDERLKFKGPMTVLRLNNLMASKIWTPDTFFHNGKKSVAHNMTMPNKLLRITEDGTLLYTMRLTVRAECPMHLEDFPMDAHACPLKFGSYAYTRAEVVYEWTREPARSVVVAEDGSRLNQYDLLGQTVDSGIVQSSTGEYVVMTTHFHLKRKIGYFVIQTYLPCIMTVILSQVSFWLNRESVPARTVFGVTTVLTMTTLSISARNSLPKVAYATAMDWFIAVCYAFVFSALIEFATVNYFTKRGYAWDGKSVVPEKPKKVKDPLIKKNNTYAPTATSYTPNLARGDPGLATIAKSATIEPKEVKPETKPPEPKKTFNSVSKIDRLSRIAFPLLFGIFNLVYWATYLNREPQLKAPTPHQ
T2 sequence (P47870 25-512 limits assumed): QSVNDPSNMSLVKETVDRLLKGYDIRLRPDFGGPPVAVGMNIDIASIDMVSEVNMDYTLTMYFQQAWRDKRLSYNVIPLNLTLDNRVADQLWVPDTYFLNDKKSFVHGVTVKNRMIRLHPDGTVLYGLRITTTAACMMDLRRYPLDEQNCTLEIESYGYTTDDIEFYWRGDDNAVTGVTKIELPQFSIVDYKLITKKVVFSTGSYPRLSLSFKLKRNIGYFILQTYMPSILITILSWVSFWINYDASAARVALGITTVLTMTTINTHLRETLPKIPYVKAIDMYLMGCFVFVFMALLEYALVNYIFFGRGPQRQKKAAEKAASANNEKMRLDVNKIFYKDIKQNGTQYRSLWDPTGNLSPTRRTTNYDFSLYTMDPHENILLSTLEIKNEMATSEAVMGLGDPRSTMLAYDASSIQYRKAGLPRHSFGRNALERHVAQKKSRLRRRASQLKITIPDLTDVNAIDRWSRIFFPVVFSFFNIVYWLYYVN
T2 sequence (P18507 40-475 partner): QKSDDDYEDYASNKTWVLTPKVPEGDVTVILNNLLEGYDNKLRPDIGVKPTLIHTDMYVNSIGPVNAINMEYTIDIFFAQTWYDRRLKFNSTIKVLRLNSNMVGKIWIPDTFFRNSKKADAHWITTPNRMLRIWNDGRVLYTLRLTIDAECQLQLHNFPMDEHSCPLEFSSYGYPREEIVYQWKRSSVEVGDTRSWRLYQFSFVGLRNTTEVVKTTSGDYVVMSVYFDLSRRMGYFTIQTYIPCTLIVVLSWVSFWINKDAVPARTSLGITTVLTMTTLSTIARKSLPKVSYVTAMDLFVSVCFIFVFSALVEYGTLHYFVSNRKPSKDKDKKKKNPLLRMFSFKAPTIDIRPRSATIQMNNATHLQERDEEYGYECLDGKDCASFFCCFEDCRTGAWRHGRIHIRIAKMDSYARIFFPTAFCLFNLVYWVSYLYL
Source text: as §1, §2, §3, §4, §5, §6, §7

SMILES: C#CC1([C@H]2CC[C@H]3[C@@H]4CC[C@@H]5C[C@](C)(O)CC[C@@H]5[C@H]4CC[C@]23C)COC1 [Example 22, (3R,5R,8R,9R,10S,13S,14S,17S)-17-(3-ethynyloxetan-3-yl)-3,13-dimethyl-2,4,5,6,7,8,9,10,11,12,14,15,16,17-tetradecahydro-1H-cyclopenta[a]phenanthren-3-ol]
- EC50 (GABAA α4β3δ): > 1500 nM
- Emax (GABAA α4β3δ): 50 to 90%
- EC50 (GABAA α1β2γ2): < 500 nM
- Emax (GABAA α1β2γ2): > 90%

SMILES: C[C@@]1(O)CC[C@H]2[C@H](CC[C@@H]3[C@@H]2CC[C@]2(C)[C@@H](C4(Cn5cc(C#N)cn5)COC4)CC[C@@H]32)C1 [Example 15, 1-[[3-[(3R,5R,8R,9R,10S,13S,14S,17S)-3-hydroxy-3,13-dimethyl-2,4,5,6,7,8,9,10,11,12,14,15,16,17-tetradecahydro-1H-cyclopenta[a]phenanthren-17-yl]oxetan-3-yl]methyl]pyrazole-4-carbonitrile]
- EC50 (GABAA α4β3δ): > 1500 nM
- Emax (GABAA α4β3δ): > 90%
- EC50 (GABAA α1β2γ2): < 500 nM
- Emax (GABAA α1β2γ2): > 90%

SMILES: C[C@@]1(O)CC[C@H]2[C@H](CC[C@@H]3[C@@H]2CC[C@]2(C)[C@@H](C4(C5CC5)COC4)CC[C@@H]32)C1 [Example 21, (3R,5R,8R,9R,10S,13S,14S,17S)-17-(3-cyclopropyloxetan-3-yl)-3,13-dimethyl-2,4,5,6,7,8,9,10,11,12,14,15,16,17-tetradecahydro-1H-cyclopenta[a]phenanthren-3-ol]
- EC50 (GABAA α4β3δ): > 1500 nM
- Emax (GABAA α4β3δ): > 90%
- EC50 (GABAA α1β2γ2): 500 to 1000 nM
- Emax (GABAA α1β2γ2): > 90%

From patent US20230118577A1, “NEUROACTIVE STEROIDS AND PHARMACEUTICAL COMPOSITION CONTAINING THE SAME” (Brii Biosciences, Inc., priority 2020, published 2023)
